Results taken from patent US20220024851A1, “CRYSTALLINE FORMS OF MULTICYCLIC COMPOUNDS AND USES THEREOF” (Convelo Therapeutics, Inc., priority 2018, published 2022).
Structures can show the parent of a compound that is named as a salt.

Legend:
Assay type in all cases: physicochemical
[1] = Aqueous kinetic solubility by aliquot addition method; settings: water; for Kinetic Solubility / solubility kinetic: ambient temperature, visual dissolution
Description: Generated solids were typically observed by polarized light microscopy and, if crystalline (i.e. display birefringence and extinction), analyzed by XRPD. The XRPD patterns were compared to each other and to available reference patterns of salt formers. If unique by XRPD, the materials were further analyzed by ^1H NMR, TGA, DSC, and DVS. Kinetic solubilities of selected materials were estimated by aliquot addition method. Equilibrium solubilities were estimated gravimetrically using supernatants from suspensions equilibrated at ambient temperature for approximately 7-10 days.
Weighed samples of material were treated with aliquots of water at ambient temperature. Samples were typically sonicated between additions to facilitate dissolution. Complete dissolution was observed through visual inspection. Solubilities were calculated based on the total amount of solvent added to achieve complete dissolution and may be greater than the value reported due to incremental solvent addition and the inherent kinetics of dissolution. If dissolution was not observed, values are reported as “less than”. If complete dissolution was observed upon the first aliquot of solvent, values are reported as “greater than”.
Kinetic solubility was estimated by aliquot addition method, and dissolution was judged by visual observations. If dissolution was not observed, values are reported as “less than.” If complete dissolution was observed upon the first aliquot of solvent, values are reported as “greater than.” Kinetic solubility of selected salts is presented in Table 8.

[2] = Thermogravimetric analysis (TGA), thermal decomposition; settings: for Decomposition onset: TGA, heated under nitrogen
Experimental: TGA is a method of thermal gravimetric analysis in which changes in physical and chemical properties of a material are measured as a function of increasing temperature (with constant heating rate) or as a function of time (with constant temperature and/or constant mass loss). TGA can provide information about physical phenomena, such as second-order phase transitions, or about chemical phenomena, such as desolvation and/or decomposition.
TG analyses described herein were performed using a Mettler Toledo TGA/DSC3+ analyzer. Balance check was performed using calcium oxalate, and temperature calibration was performed using indium, tin, and zinc. The sample was placed in an aluminum pan. The sample was sealed, the lid pierced, then inserted into the TG furnace. The furnace was heated under nitrogen.

[3] = Dynamic vapor sorption (DVS) / hygroscopicity; settings: for Desorption, hysteresis and form change after moisture sorption-desorption: moisture sorption-desorption cycles, XRPD
Experimental: The crystalline forms provided can be additionally characterized by dynamic vapor sorption (DVS), wherein a sample is subjected to varying conditions of humidity and temperature, and the response of the sample is measured gravimetrically. The result of a DVS analysis particularly can be a dual curve providing sample weight percent as a function of relative humidity (RH) over time, a dual curve providing sample water content as a function of RH over time, a curve providing weight percent in relation to RH, or a curve providing water content in relation to RH. Equipment useful for measuring such data is known in the art, and any such equipment can be used to measure the compounds according to the present invention. In certain embodiments, DVS analysis can be carried out by scanning at a series of specific RH values. Thus, specific crystalline forms according to the invention may be identified and described in relation to the representative graph and/or the approximate peaks obtained in DVS analysis, particularly scanning from 0% to 95% RH with a step interval of 5% or 10% RH.
Hygroscopicities of the materials described in the present disclosure are classified according to Table 1
DVS data were collected on a VTI SGA-100 Vapor Sorption Analyzer. NaCl and PVP were used as calibration standards. Samples were not dried prior to analysis. Sorption and desorption data were collected over a range from 5% to 95% RH at 10% RH increments under a nitrogen purge. The equilibrium criterion used for analysis was less than 0.0100% weight change in 5 minutes with a maximum equilibration time of 3 hours. Data were not corrected for the initial moisture content of the samples.

[4] = upon increase of RH / entire RH range

CCN(C/C=C\c1ccc(C2CCCCC2)c(Cl)c1)C1CCCCC1.O=S(=O)(O)c1ccccc1 [Besylate salt, Besylate Salt of Cis-N-cyclohexyl-N-ethyl-3-(3-chloro-4-cyclohexylphenyl)prop-2-enylamine]
Kinetic Solubility [1]: <600 µg/mL
Kinetic Solubility ([1]; listed as Besylate slat): < 1000 µg/mL
Decomposition onset [2]: 274 °C
DVS weight gain ([3]; 5-85% RH): about 0.88%
DVS weight gain ([3]; 85-95% RH): about 0.85%
Desorption, hysteresis and form change after moisture sorption-desorption [3]: complete desorption without form change and with almost no hysteresis
Hygroscopicity [3, 4]: limited hygroscopicity

CCN(C/C=C\c1ccc(C2CCCCC2)c(Cl)c1)C1CCCCC1.O=S(=O)(O)CCS(=O)(=O)O [Edisylate salt, Edisylate Salt of Cis-N-cyclohexyl-N-ethyl-3-(3-chloro-4-cyclohexylphenyl)prop-2-enylamine]
Decomposition onset [2]: 260 °C
DVS weight gain ([3]; 5-75% RH): about 0.35%
DVS weight gain ([3]; 75-95% RH): about 18.55%
Hygroscopicity ([3]; above 75% RH): significant hygroscopicity and deliquesces
Hygroscopicity ([3]; below 75% RH): non-hygroscopic
Desorption, hysteresis and form change after moisture sorption-desorption [3]: form change to a highly disordered material

CCN(C/C=C\c1ccc(C2CCCCC2)c(Cl)c1)C1CCCCC1.CCS(=O)(=O)O [Esylate salt, Esylate Salt of Cis-N-cyclohexyl-N-ethyl-3-(3-chloro-4-cyclohexylphenyl)prop-2-enylamine]
solubility kinetic [1]: 30000 µg/mL
fold more soluble than all other crystalline salts isolated (kinetic solubility) ([1]; vs other crystalline salts): more than 30 fold
Decomposition onset [2]: 268 °C
DVS weight gain ([3]; 5-85% RH): about 0.35%
DVS weight gain ([3]; 5 to 95% RH): about 0.9 wt %
DVS weight gain ([3]; 85-95% RH): 0.51%
Desorption, hysteresis and form change after moisture sorption-desorption [3]: complete desorption without hysteresis or form change
Hygroscopicity [3, 4]: limited hygroscopicity

CCN(C/C=C\c1ccc(C2CCCCC2)c(Cl)c1)C1CCCCC1 [Salicylate salt, Salicylate Salt of Cis-N-cyclohexyl-N-ethyl-3-(3-chloro-4-cyclohexylphenyl)prop-2-enylamine]
solubility kinetic [1]: < 1000 µg/mL
Thermal stability [2]: thermally stable
Decomposition onset [2]: 212 °C
DVS weight gain ([3]; 5-95% RH): about 0.04%
DVS weight gain ([3]; 5 to 95% RH): about 0.04 wt %
Hygroscopicity [3, 4]: non-hygroscopic
Hygroscopicity ([3]; upon increase of RH / entire RH range, listed as salicylate): lack of hygroscopicity

CCN(C/C=C\c1ccc(C2CCCCC2)c(Cl)c1)C1CCCCC1.O=C(O)c1ccc2ccccc2c1O [Xinafoate salt, Xinafoate Salt of Cis-N-cyclohexyl-N-ethyl-3-(3-chloro-4-cyclohexylphenyl)prop-2-enylamine]
Decomposition onset [2]: 146 °C
DVS weight gain ([3]; 5-85% RH): about 0.88%
DVS weight gain ([3]; 85-95% RH): about 0.85%
Hygroscopicity ([3]; above 65% RH): limited hygroscopicity
Hygroscopicity ([3]; below 65% RH): non-hygroscopic
Desorption, hysteresis and form change after moisture sorption-desorption [3]: A form change is suggested
